According to EP4755890A1, “OXO-TRICYCLIC DERIVATIVE AND PHARMACEUTICAL USE THEREOF” (Haisco Pharmaceutical Group Co., Ltd., priority 2023, dated 2025):

Assays:
Format in all cases: cell-based
SW48 cells = experiment: SW48 cell proliferation inhibition assay (CellTiter-Glo); conditions: Homo sapiens, 96 h, 4 days, read-out: Inhibitory activity against SW48 cell proliferation IC50
Protocol: (§1) The culture conditions for SW48 cells were as follows: Leibovitz L15 + 10% FBS + 1% penicillin-streptomycin, and the cells were cultured in an incubator without CO2 at 37°C. On the first day, the SW48 cells in the exponential growth phase were collected and plated in 96-well cell culture plates at a density of 1000 cells/well (180 µL/well). The plates were cultured overnight in an incubator without CO2 at 37°C. T0 wells were plated simultaneously during the plating process. The next day, 20 µL of compounds at different concentrations were added to each well (nine compound concentration gradients, one DMSO well, and one blank well; each compound concentration was plated in triplicate), and the final concentration of DMSO in each well was 0.1%. The plates were cultured in an incubator without CO2 at 37°C for 4 days. On the same day of compound addition, the T0 plate was detected using the CellTiter-Glo Kit, and the detected value was recorded as RLU0. After the culture was completed, 100 µL of detection solution (Cell Viability Assay, Promega) was added to each well. The plates were incubated at room temperature for 10 minutes with slow shaking. The chemiluminescence reading was read using a BMG microplate reader (PHERAstar FSX). The results were processed according to Formula (5) to calculate the proliferation inhibition rate of compounds at each concentration. Curve fitting was performed via a four-parameter logistic model using GraphPad Prism software, and the GI50 value (the concentration of the compound when the proliferation inhibition rate was 50%) was calculated. In the formula, RLUcompound is the readout of the drug-treated group, RLUcontrol is the average value of the compound vehicle control group, and RLUBlank is the average value of the blank control group. [formula] Table 3. Results of inhibitory activity of test compounds against cell proliferation

hERG potassium channel = molecular target: T1, hERG potassium channel (Homo sapiens, UniProt Q12809); experiment: hERG potassium channel activity assay (manual whole-cell patch clamp)
T1 construct: expressed in transfected cells
Description: Experimental platform: Manual electrophysiological patch-clamp system
Cell line: Chinese hamster ovary (CHO) cell line stably expressing hERG potassium channel
Experimental method: In Chinese Hamster Ovary (CHO) cells stably expressing hERG potassium channel, whole-cell patch-clamp technique was used to record hERG potassium channel current at room temperature. The glass microelectrodes were pulled from glass electrode blanks (BF150-86-10, Sutter) by a glass microelectrode puller. The tip resistance of the microelectrodes after being filled with intrapipette solution was about 2-5 MΩ. The glass microelectrodes were connected to the patch-clamp amplifier by inserting them into an amplifier probe. The clamping voltage and data recording were controlled and recorded by the pClamp 10 software through a computer, with a sampling frequency of 10 kHz and a filtering frequency of 2 kHz. […]
Compound IC50 was calculated using GraphPad Prism 5 software by fitting according to the following equation: Y = Bottom + (Top−Bottom)/(1+10^(∧)((LogIC50−X)*HillSlope)) [formula] where X is the Log value of the test compound concentration, Y is the inhibition percentage at the corresponding concentration, and Bottom and Top are the minimum and maximum inhibition percentage, respectively.

HT-29 cells = experiment: HT-29 cell proliferation inhibition assay (CellTiter-Glo); conditions: Homo sapiens, 96 h, 4 days, read-out: Inhibitory activity against HT-29 cell proliferation IC50
Protocol: as §1, with “HT-29” for “SW48”, “DMEM” for “Leibovitz L15”, “with 5%” for “without”, “(4)” for “(5)”, “[formula]” for “[formula] Table 3. Results of inhibitory activity of test compounds against cell proliferation”

T1 sequence (Q12809 whole entry): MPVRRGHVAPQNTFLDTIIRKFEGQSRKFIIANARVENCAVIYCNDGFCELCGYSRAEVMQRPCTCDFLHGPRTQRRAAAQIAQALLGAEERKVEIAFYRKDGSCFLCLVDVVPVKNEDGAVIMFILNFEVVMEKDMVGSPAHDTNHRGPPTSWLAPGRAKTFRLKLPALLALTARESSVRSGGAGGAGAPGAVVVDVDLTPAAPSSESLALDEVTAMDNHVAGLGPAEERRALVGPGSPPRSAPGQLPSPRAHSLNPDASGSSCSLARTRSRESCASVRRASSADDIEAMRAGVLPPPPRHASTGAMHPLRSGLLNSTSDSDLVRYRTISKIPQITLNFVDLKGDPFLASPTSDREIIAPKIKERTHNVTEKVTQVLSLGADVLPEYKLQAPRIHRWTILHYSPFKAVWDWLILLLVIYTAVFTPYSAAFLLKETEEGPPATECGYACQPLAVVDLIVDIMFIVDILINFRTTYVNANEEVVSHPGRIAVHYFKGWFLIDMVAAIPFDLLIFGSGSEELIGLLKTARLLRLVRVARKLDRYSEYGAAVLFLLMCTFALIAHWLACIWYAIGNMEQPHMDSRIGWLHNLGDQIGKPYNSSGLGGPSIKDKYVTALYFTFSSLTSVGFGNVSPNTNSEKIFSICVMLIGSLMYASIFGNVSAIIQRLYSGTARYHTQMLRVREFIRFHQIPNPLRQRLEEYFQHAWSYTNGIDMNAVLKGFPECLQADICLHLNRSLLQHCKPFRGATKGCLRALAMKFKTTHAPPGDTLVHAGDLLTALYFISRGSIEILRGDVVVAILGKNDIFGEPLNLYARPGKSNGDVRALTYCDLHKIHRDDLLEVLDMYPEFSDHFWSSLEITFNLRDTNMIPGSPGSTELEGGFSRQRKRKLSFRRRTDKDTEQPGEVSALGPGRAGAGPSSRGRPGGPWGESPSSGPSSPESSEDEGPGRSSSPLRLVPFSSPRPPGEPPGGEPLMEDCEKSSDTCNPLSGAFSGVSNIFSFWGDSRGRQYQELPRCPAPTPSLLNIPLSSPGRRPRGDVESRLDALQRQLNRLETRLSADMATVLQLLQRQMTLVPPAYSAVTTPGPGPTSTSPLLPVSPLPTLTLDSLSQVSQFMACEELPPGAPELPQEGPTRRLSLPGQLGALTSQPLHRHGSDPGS

With `Cc1ncnc(C(=O)N2CCN(c3c4n(c5nc(C6=CCOCC6)nn5c3=O)C(C(=O)Nc3ccc(C(F)(F)F)cc3Cl)CCC4)C[C@H]2C)c1O` (single isomer, unassigned) [Compound 8-B] the IC50 (SW48 cells) was < 0.1 µM and the IC50 (hERG potassium channel) was > 40 µM.

With `Cc1ncnc(C(=O)N2CCN(c3c4n(c5nc(C6=CCOCC6)nn5c3=O)[C@@H](C(=O)Nc3ccc(C(F)(F)F)cc3Cl)CCC4)CC2)c1O` [Compound 1-B] the IC50 (SW48 cells) was < 0.1 µM, the IC50 (HT-29 cells) was ≥ 10 µM and the IC50 (hERG potassium channel) was > 40 µM.

For `Cc1ncnc(C(=O)N2[C@@H](C)CN(c3c4n(c5nc(C6=CCOCC6)nn5c3=O)[C@@H](C(=O)Nc3ccc(C(F)(F)F)cc3Cl)CCC4)C[C@@H]2C)c1O` [Compound 20-A], the IC50 (SW48 cells) was < 0.1 µM and the IC50 (HT-29 cells) was ≥ 10 µM.
